{"source": "ChEMBL document CHEMBL1158657", "about": "“Improved antitumor activity by modification of nogalamycin” (1979)", "key": {"L1210 [1]": {"test_system": "L1210", "test": "Inhibition of RNA synthesis in mouse L1210 cells", "assay_type": "functional", "conditions": "read-out: ID50 (the source's name)"}, "L1210 [2]": {"test_system": "L1210", "test": "Inhibition of RNA synthesis in mouse L1210 cells at 10 nmole/ml", "assay_type": "functional"}, "L1210 [3]": {"test_system": "L1210", "test": "Inhibition of DNA synthesis in mouse L1210 cells", "assay_type": "functional", "conditions": "read-out: ID50 (the source's name)"}, "L1210 [4]": {"test_system": "L1210", "test": "Cytotoxicity against mouse L1210 cells", "assay_type": "functional", "conditions": "for IC50: Mus musculus"}, "P388 [5]": {"test_system": "P388", "test": "Antitumor activity against mouse P388 cells xenografted in mouse assessed as increase in life span at 1 mg/kg/day, ip after 9 days", "assay_type": "functional", "conditions": "route intraperitoneal"}, "L1210 [6]": {"test_system": "L1210", "test": "Inhibition of protein synthesis in mouse L1210 cells", "assay_type": "functional, cell-based"}, "B16 [7]": {"test_system": "B16", "test": "Antitumor activity against mouse B16 cells xenografted in mouse assessed as increase in life span at 0.5 to 1 mg/kg/day, ip after 9 days", "assay_type": "functional", "conditions": "route intraperitoneal"}, "L1210 [8]": {"test_system": "L1210", "test": "Antitumor activity against mouse L1210 cells xenografted in mouse assessed as increase in life span at 1 mg/kg/day, ip after 9 days", "assay_type": "functional", "conditions": "route intraperitoneal"}, "P388 [9]": {"test_system": "P388", "test": "Antitumor activity against mouse P388 cells xenografted in mouse assessed as increase in life span at 50 mg/kg/day, ip after 9 days", "assay_type": "functional", "conditions": "route intraperitoneal"}, "P388 [10]": {"test_system": "P388", "test": "Antitumor activity against mouse P388 cells xenografted in mouse assessed as increase in life span at 20 mg/kg/day, ip after 9 days", "assay_type": "functional", "conditions": "route intraperitoneal"}, "L1210 [11]": {"test_system": "L1210", "test": "Antitumor activity against mouse L1210 cells xenografted in mouse assessed as increase in life span at 20 mg/kg/day, ip after 9 days", "assay_type": "functional", "conditions": "route intraperitoneal"}, "B16 [12]": {"test_system": "B16", "test": "Antitumor activity against mouse B16 cells xenografted in mouse assessed as increase in life span at 12 mg/kg/day, ip after 9 days", "assay_type": "functional", "conditions": "route intraperitoneal"}, "P388 [13]": {"test_system": "P388", "test": "Antitumor activity against mouse P388 cells xenografted in mouse assessed as increase in life span at 3.1 mg/kg/day, ip after 9 days", "assay_type": "functional", "conditions": "route intraperitoneal"}, "P388 [14]": {"test_system": "P388", "test": "Antitumor activity against mouse P388 cells xenografted in mouse assessed as increase in life span at 25 mg/kg/day, ip after 9 days", "assay_type": "functional", "conditions": "route intraperitoneal"}, "P388 [15]": {"test_system": "P388", "test": "Antitumor activity against mouse P388 cells xenografted in mouse assessed as increase in life span at 12.5 mg/kg/day, ip after 9 days", "assay_type": "functional", "conditions": "route intraperitoneal"}, "P388 [16]": {"test_system": "P388", "test": "Antitumor activity against mouse P388 cells xenografted in mouse assessed as increase in life span at 8 mg/kg/day, ip after 9 days", "assay_type": "functional", "conditions": "route intraperitoneal"}, "[17]": {"conditions": "L1210, read-out: ID50 (the source's name)"}}, "note": "Activity calls are given as the source filed them. No cut-off for these calls is given here."}
{"smiles": "COC(=O)[C@@H]1c2cc3c(c(O)c2[C@@H](O[C@@H]2O[C@@H](C)[C@H](OC)[C@@](C)(OC)[C@H]2OC)C[C@]1(C)O)C(=O)c1c(O)cc2c(c1C3=O)O[C@@H]1O[C@@]2(C)[C@H](O)[C@@H](N(C)C)[C@@H]1O", "note": "[NOGALAMYCIN]", "values": [{"measurement": "IC50", "setting": "L1210 [1]", "value": 400, "unit": "nM"}, {"measurement": "inhibition (INH)", "setting": "L1210 [2]", "value": 99.9, "unit": "%"}, {"measurement": "IC50", "setting": "L1210 [3]", "value": 3300, "unit": "nM"}, {"measurement": "ID95", "setting": "L1210 [4]", "value": 0.18, "unit": "µg/mL"}, {"measurement": "IC50", "setting": "L1210 [4]; L1210, read-out: ID50", "value": 0.078, "unit": "µg/mL"}, {"measurement": "Activity", "setting": "P388 [5]", "value": 49, "unit": "%"}, {"measurement": "Activity", "setting": "L1210 [6]", "value": "inactive"}, {"measurement": "Activity", "setting": "B16 [7]", "value": 71, "unit": "%"}, {"measurement": "Activity", "setting": "L1210 [8]", "value": 30, "unit": "%"}]}
{"smiles": "CCCO[C@H]1C[C@@](C)(O)[C@H](C(=O)OC)c2cc3c(c(O)c21)C(=O)c1c(O)cc2c(c1C3=O)O[C@@H]1O[C@@]2(C)[C@H](O)[C@@H](N(C)C)[C@@H]1O", "values": [{"measurement": "IC50", "setting": "L1210 [4]; L1210, read-out: ID50", "value": 0.3, "unit": "µg/mL"}]}
{"smiles": "COC(=O)[C@@H]1c2cc3c(c(O)c2CC[C@]1(C)O)C(=O)c1c(O)cc2c(c1C3=O)O[C@@H]1O[C@@]2(C)[C@H](O)[C@@H](N(C)C)[C@@H]1O", "values": [{"measurement": "Activity", "setting": "P388 [9]", "value": 27, "unit": "%"}, {"measurement": "ID95", "setting": "L1210 [4]", "value": 1510, "unit": "nM"}, {"measurement": "IC50", "setting": "L1210 [4]; [17]", "value": 580, "unit": "nM"}]}
{"smiles": "CO[C@H]1[C@H](O[C@H]2C[C@](C)(O)[C@H](C(=O)O)c3cc4c(c(O)c32)C(=O)c2c(O)cc3c(c2C4=O)O[C@@H]2O[C@@]3(C)[C@H](O)[C@@H](N(C)C)[C@@H]2O)O[C@@H](C)[C@H](OC)[C@@]1(C)OC", "note": "[NOGALAMYCINIC ACID]", "values": [{"measurement": "Activity", "setting": "P388 [10]", "value": 56, "unit": "%"}, {"measurement": "Activity", "setting": "L1210 [11]", "value": 18, "unit": "%"}, {"measurement": "inhibition (INH)", "setting": "L1210 [2]", "value": 86.7, "unit": "%"}, {"measurement": "ID95", "setting": "L1210 [4]", "value": 1.94, "unit": "µg/mL"}, {"measurement": "IC50", "setting": "L1210 [4]; L1210, read-out: ID50", "value": 1, "unit": "µg/mL"}]}
{"smiles": "CCO[C@H]1C[C@](C)(O)Cc2cc3c(c(O)c21)C(=O)c1c(O)cc2c(c1C3=O)O[C@@H]1O[C@@]2(C)[C@H](O)[C@@H](N(C)C)[C@@H]1O", "values": [{"measurement": "IC50", "setting": "L1210 [1]", "value": 800, "unit": "nM"}, {"measurement": "IC50", "setting": "L1210 [3]", "value": 3200, "unit": "nM"}, {"measurement": "Activity", "setting": "B16 [12]", "value": 34, "unit": "%"}, {"measurement": "IC50", "setting": "L1210 [4]; L1210, read-out: ID50", "value": 0.43, "unit": "µg/mL"}]}
{"smiles": "CCCO[C@H]1C[C@](C)(O)Cc2cc3c(c(O)c21)C(=O)c1c(O)cc2c(c1C3=O)O[C@@H]1O[C@@]2(C)[C@H](O)[C@@H](N(C)C)[C@@H]1O", "values": [{"measurement": "Activity", "setting": "P388 [13]", "value": 50, "unit": "%"}, {"measurement": "IC50", "setting": "L1210 [4]; L1210, read-out: ID50", "value": 0.33, "unit": "µg/mL"}]}
{"smiles": "CCN(CC)[C@H]1C[C@](C)(O)[C@H](C(=O)OC)c2cc3c(c(O)c21)C(=O)c1c(O)cc2c(c1C3=O)O[C@@H]1O[C@@]2(C)[C@H](O)[C@@H](N(C)C)[C@@H]1O", "values": [{"measurement": "Activity", "setting": "P388 [14]", "value": 38, "unit": "%"}]}
{"smiles": "CCO[C@H]1C[C@](C)(O)[C@H](C(=O)OC)c2cc3c(c(O)c21)C(=O)c1c(O)cc2c(c1C3=O)O[C@@H]1O[C@@]2(C)[C@H](O)[C@@H](N(C)C)[C@@H]1O", "values": [{"measurement": "IC50", "setting": "L1210 [4]; L1210, read-out: ID50", "value": 0.16, "unit": "µg/mL"}]}
{"smiles": "CCO[C@H]1C[C@@](C)(O)[C@H](C(=O)OC)c2cc3c(c(O)c21)C(=O)c1c(O)cc2c(c1C3=O)O[C@@H]1O[C@@]2(C)[C@H](O)[C@@H](N(C)C)[C@@H]1O", "values": [{"measurement": "Activity", "setting": "P388 [15]", "value": 70, "unit": "%"}, {"measurement": "IC50", "setting": "L1210 [4]; L1210, read-out: ID50", "value": 0.15, "unit": "µg/mL"}]}
{"smiles": "COC(=O)[C@@H]1c2cc3c(c(O)c2[C@@H](N(C)C)C[C@]1(C)O)C(=O)c1c(O)cc2c(c1C3=O)O[C@@H]1O[C@@]2(C)[C@H](O)[C@@H](N(C)C)[C@@H]1O", "values": [{"measurement": "Activity", "setting": "P388 [9]", "value": 54, "unit": "%"}]}
{"smiles": "CN[C@H]1C[C@](C)(O)[C@H](C(=O)OC)c2cc3c(c(O)c21)C(=O)c1c(O)cc2c(c1C3=O)O[C@@H]1O[C@@]2(C)[C@H](O)[C@@H](N(C)C)[C@@H]1O", "values": [{"measurement": "Activity", "setting": "P388 [14]", "value": 58, "unit": "%"}]}
{"smiles": "Cc1ccc2c(O)c3c(cc2c1)C(=O)c1c2c(cc(O)c1C3=O)[C@@]1(C)O[C@@H](O2)[C@@H](O)[C@H](N(C)C)[C@H]1O", "note": "[NOGARENE]", "values": [{"measurement": "Activity", "setting": "P388 [15]", "value": 17, "unit": "%"}, {"measurement": "ID95", "setting": "L1210 [4]", "value": 370, "unit": "nM"}, {"measurement": "IC50", "setting": "L1210 [4]; [17]", "value": 220, "unit": "nM"}]}
{"smiles": "COC(=O)[C@@H]1c2cc3c(c(O)c2[C@@H](SC)C[C@]1(C)O)C(=O)c1c(O)cc2c(c1C3=O)O[C@@H]1O[C@@]2(C)[C@H](O)[C@@H](N(C)C)[C@@H]1O", "values": [{"measurement": "Activity", "setting": "P388 [16]", "value": 37, "unit": "%"}]}
